From PubChem BioAssay (NCI)
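These data come from cells grown in 96-well plates and exposed to compound for 48 hours at five concentrations. GI50 is the concentration that inhibits growth by half. TGI marks complete inhibition of growth.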

Experiments:
Assay in all cases: growth of human tumour cells (NCI), 48 h
NCI/ADR-RES ovarian = system: NCI/ADR-RES ovarian
U251 CNS = system: U251 CNS
RXF 393 renal = system: RXF 393 renal
PC-3 prostate = system: PC-3 prostate
CAKI-1 renal = system: CAKI-1 renal
HL-60(TB) leukemia = system: HL-60(TB) leukemia
HT29 colon = system: HT29 colon
HCC-2998 colon = system: HCC-2998 colon
HOP-62 NSCLC = system: HOP-62 NSCLC
A498 renal = system: A498 renal

Compound	TGI (NCI/ADR-RES ovarian)	TGI (U251 CNS)	TGI (RXF 393 renal)	TGI (PC-3 prostate)	TGI (CAKI-1 renal)	TGI (HL-60(TB) leukemia)	TGI (HT29 colon)	TGI (HCC-2998 colon)	TGI (HOP-62 NSCLC)	TGI (A498 renal)	GI50 (RXF 393 renal)	GI50 (HL-60(TB) leukemia)
COCC#C[C@@]1(O)CCCCC1CC(OC)OC (stereo partly specified)	> 100 µM	> 100 µM	> 100 µM	> 100 µM	> 100 µM	> 100 µM	> 100 µM	> 100 µM	> 100 µM	> 100 µM	–	–
Cc1cc(S(=O)(=O)Nc2n[nH]c(Nc3ccccc3)n2)c(SCC(=O)O)cc1Cl	> 100 µM	> 100 µM	> 100 µM	> 100 µM	> 100 µM	> 100 µM	> 100 µM	> 100 µM	> 100 µM	> 100 µM	–	–
CCOc1ccc(N=Nc2ccc3cc(/C(C)=N/NC(=O)/C(C#N)=C\c4ccc(N(CCC#N)CCC#N)cc4)c(=O)oc3c2)cc1	> 10 µM	> 10 µM	> 10 µM	> 10 µM	> 10 µM	> 10 µM	> 10 µM	> 10 µM	> 10 µM	> 10 µM	–	–
O=C(OC12CC3CC(CC(C3)C1)C2)c1ccc(NCc2cc(O)ccc2O)cc1	2.76 µM	2.69 µM	1.02 µM	3.37 µM	0.825 µM	0.627 µM	9.73 µM	3.75 µM	14.8 µM	4.98 µM	–	–
CC(=O)OCC(=O)O[C@@H]1[C@H]2[C@@H](OC(=O)c3ccccc3)[C@@H](C)C[C@]2(O)[C@H](OC(C)=O)[C@@]2(C)C[C@]1(OC(C)=O)C[C@H]1C(=O)C(C)(C)[C@@H](OC(C)=O)[C@@H]12	> 25 µM	> 25 µM	> 25 µM	> 25 µM	> 25 µM	> 25 µM	> 25 µM	> 25 µM	> 25 µM	> 23.8 µM	–	–
C=C1C[C@@H]2CC[C@@]34C[C@H]5O[C@H]6[C@@H](O3)[C@H]3O[C@H](CC[C@@H]3O[C@H]6[C@H]5O4)CC(=O)C[C@@H]3[C@@H](OC)[C@@H](C[C@H](O)CN)O[C@H]3C[C@H]3O[C@@H](CC[C@@H]1O2)C[C@@H](C)C3=C	> 1 µM	> 0.199 µM	–	> 0.12 µM	0.366 µM	0.00466 µM	0.0133 µM	0.096 µM	> 1 µM	0.245 µM	0.00255 µM	0.000307 µM
CCCCN1C(=O)CC2[C@@H]3CCc4cc(OC)ccc4C3CC[C@]2(C)C1=O (stereo partly specified)	> 10 µM	> 10 µM	> 10 µM	> 10 µM	> 10 µM	> 10 µM	> 10 µM	> 10 µM	> 10 µM	> 10 µM	–	–
COc1cc2c3c(cc(Cl)nc3c1OC)C(=O)C(=O)N2	53.1 µM	30.3 µM	27.5 µM	27.6 µM	28.6 µM	3.56 µM	41.4 µM	33.6 µM	34.7 µM	30.2 µM	–	–
CCOC(=O)/C=C(/C=C\COC1CCCCO1)c1ccccc1 (stereo unspecified)	95.7 µM	96 µM	55.3 µM	> 100 µM	> 100 µM	44.2 µM	29.2 µM	> 100 µM	> 100 µM	> 100 µM	–	–
COC(=O)C1=C(C)NC(C)=C(C(=O)OC)C1c1cccc(N=O)c1	51 µM	30.7 µM	26.8 µM	31.7 µM	22.4 µM	25.8 µM	34 µM	45.9 µM	56.2 µM	98.2 µM	–	–
COc1ccc(OC/C(N=Cc2ccncc2)=N/NC(=O)c2ccncc2)cc1	> 100 µM	> 100 µM	> 100 µM	> 100 µM	> 100 µM	> 100 µM	> 100 µM	> 100 µM	> 100 µM	> 100 µM	–	–
Cc1cc(OCc2nnc3sc(NC(=O)c4ccccc4)nn23)ccc1Cl	> 100 µM	> 100 µM	83.3 µM	> 100 µM	36 µM	> 100 µM	> 100 µM	90.2 µM	48.2 µM	> 100 µM	–	–
O=c1ccn(-c2ccccn2)c(=O)n1-c1ccccn1	> 100 µM	> 100 µM	> 100 µM	> 100 µM	> 100 µM	> 100 µM	> 100 µM	> 100 µM	> 100 µM	> 100 µM	–	–
O=C(O)C1=NN(c2ccc(S(=O)(=O)O)cc2)C2(C1)C(Cl)C(=O)N2c1nc2ccccc2s1 (stereo unspecified)	56.2 µM	32.1 µM	34.8 µM	31.2 µM	31.5 µM	34.4 µM	34.9 µM	33.4 µM	30.5 µM	36.7 µM	–	–
C[n+]1c(-c2ccc(NC(=O)c3ccc(C(=O)Nc4ccc(-c5cn6ccccc6[n+]5C)cc4)cc3)cc2)cn2ccccc21	> 100 µM	> 100 µM	> 100 µM	> 100 µM	> 100 µM	> 100 µM	> 100 µM	> 100 µM	> 100 µM	> 94.9 µM	–	–
O=C1CS/C(=N/N=C/c2cn(Cc3ccc(Cl)cc3Cl)c3ccccc23)N1	> 100 µM	37.2 µM	77.2 µM	76.8 µM	> 100 µM	> 100 µM	> 100 µM	92.3 µM	> 100 µM	46.5 µM	–	–

Compound	TGI (NCI/ADR-RES ovarian)	TGI (U251 CNS)	TGI (RXF 393 renal)	TGI (PC-3 prostate)	TGI (CAKI-1 renal)	TGI (HL-60(TB) leukemia)	TGI (HT29 colon)	TGI (HCC-2998 colon)	TGI (HOP-62 NSCLC)	TGI (A498 renal)	GI50 (RXF 393 renal)	GI50 (HL-60(TB) leukemia)
Clc1ccc(OCc2nnc(COc3ccc(OCc4nnc(COc5ccc(Cl)cc5Cl)o4)c(Cl)c3)o2)c(Cl)c1	66.7 µM	54.7 µM	59.6 µM	> 100 µM	54.9 µM	57.3 µM	87.5 µM	97.3 µM	> 100 µM	> 100 µM	–	–
O=C(Sc1c(-c2ccccc2)c(=O)n(-c2ccccc2)c(=S)n1-c1ccccc1)c1ccco1	> 100 µM	> 100 µM	> 100 µM	> 100 µM	> 100 µM	59.2 µM	> 100 µM	> 100 µM	> 100 µM	> 100 µM	–	–
CCOc1ccc(NCC2CC/C(=C\C=C\c3ccccc3)C2=O)cc1 (stereo unspecified)	> 75.3 µM	35.5 µM	29.6 µM	49.8 µM	> 40.8 µM	47.8 µM	30.3 µM	> 72.4 µM	> 62 µM	> 100 µM	–	–
COc1ccc(C2=C(Cl)C(=O)O/C2=C\c2ccc(OC)c(Br)c2)cc1Cl	88.6 µM	36.6 µM	46.3 µM	> 100 µM	> 100 µM	> 100 µM	> 100 µM	> 100 µM	30.8 µM	52.9 µM	–	–
Cc1nc(SCC(N)=O)c2sc(=S)n(-c3ccccc3)c2n1	> 10 µM	> 10 µM	> 10 µM	> 10 µM	> 10 µM	> 10 µM	> 10 µM	> 10 µM	> 10 µM	> 10 µM	–	–
NCCCCNCCCNC(=O)CNC(=O)CC(O)C(N)CCCC(NC(=O)C(CN)NC(=O)C(O)CNC(=O)CC(N)c1ccc(O)cc1)C(=O)O (stereo unspecified)	> 10 µM	> 10 µM	> 10 µM	> 10 µM	> 10 µM	> 10 µM	> 10 µM	> 10 µM	> 10 µM	> 10 µM	–	–
CCN(CC)c1ccc(NC(=S)NN(C)C)cc1	> 10 µM	> 10 µM	> 10 µM	> 10 µM	> 10 µM	> 10 µM	> 10 µM	> 10 µM	> 10 µM	> 10 µM	–	–
O=[N+]([O-])/C(Cl)=C(/C(Cl)=C(Cl)Cl)N1CCCCC1	19.1 µM	26.8 µM	20.6 µM	43.8 µM	24.9 µM	4.83 µM	29.5 µM	33.4 µM	40.8 µM	33.4 µM	–	–
O=P1(C(O)/C=C/c2ccccc2)N(Cc2ccccc2)[C@@H]2CCCC[C@H]2N1Cc1ccccc1 (stereo partly specified)	51.6 µM	16.5 µM	23.5 µM	11.3 µM	65.5 µM	5.88 µM	21.5 µM	14.4 µM	34.6 µM	11.2 µM	–	–
Cn1nc2c(c1N)Cc1c(nn(C)c1N)-c1ccccc1-2	> 100 µM	> 100 µM	> 100 µM	> 100 µM	> 100 µM	> 100 µM	> 100 µM	> 100 µM	> 100 µM	> 100 µM	–	–
Clc1cc(C(c2cc(Cl)sc2Cl)c2cc(Cl)sc2Cl)c(Cl)s1	> 100 µM	> 100 µM	> 100 µM	> 100 µM	> 100 µM	> 100 µM	> 100 µM	> 100 µM	> 100 µM	> 100 µM	–	–
CC1(C)OC[C@@H](C[C@H](O)COCc2ccccc2)O1	> 100 µM	> 100 µM	> 100 µM	> 100 µM	> 100 µM	> 100 µM	> 100 µM	> 100 µM	> 100 µM	> 100 µM	–	–
Nc1nncc2[nH]cnc12	> 100 µM	> 100 µM	> 100 µM	> 100 µM	> 100 µM	42.9 µM	> 100 µM	> 100 µM	> 100 µM	> 100 µM	–	–
COc1cc2[nH]c(=O)c3cc(-c4ccccc4)cc4c(Cl)nc(c1OC)c2c43	> 38.3 µM	62.5 µM	> 55.7 µM	> 100 µM	71 µM	12.3 µM	> 60.7 µM	> 86.4 µM	> 72.7 µM	> 100 µM	–	–
O=C1/C(=C/c2ccncc2)C(n2cccc2)c2c(Br)sc(Br)c21 (stereo unspecified)	51.2 µM	4.86 µM	3.96 µM	16.1 µM	10.9 µM	4.68 µM	23.5 µM	3.45 µM	11.3 µM	39 µM	–	–
Cc1cn(CCCCCOC(=O)NC(CCCNC(N)=O)C(=O)O)c(=O)[nH]c1=O (stereo unspecified)	> 100 µM	> 100 µM	> 100 µM	> 100 µM	> 100 µM	> 100 µM	> 100 µM	> 100 µM	> 100 µM	> 100 µM	–	–
